Patent US5656743A, “Oligonucleotide modulation of cell growth” (priority 1994, dated 1997)
“Also recorded” adds a separate entry of the source.

Experiments:
[1] = test system: HeLa S3 cells (human epithelioid cervix carcinoma); experiment: Cell growth of HeLa cells by counting attached cells after oligonucleotide treatment; assay type: cell-based; settings: for cell growth inhibitory effect: HeLa cells (FIG. 1A), 0.1-0.5 μM oligonucleotide + 10 μg/ml DOTMA, ±SD; for cell growth inhibitory effect / inhibition of cell growth (in words): serum-free, 4 h; for inhibition of cell growth (in words): oligonucleotide + 10 μg/ml DOTMA; for log HeLa cell kill: 2 days after treatment, oligonucleotide complexed with DOTMA 4 h
[2] = test system: human tumor cells (HeLa, LOX, SN12A1); assay type: cell-based; settings: 0.1 and 1 μM oligonucleotide + 10 μg/ml DOTMA 4 h; for inhibition of the tumors (in words): FIG. 2 panels A-C
[3] = Cellular uptake, efflux and localization of 32P-labeled oligonucleotide; assay type: in vitro ADME
Experimental: (§1) Phosphorothioate oligonucleotide SEQ ID NO: 9 was labeled with [γ^32 P]ATP by T4 polynucleotide kinass to analyze cellular uptake, efflux and stability in the presence or absence of DOTMA. […] 5-15 fold more of oligonucleotide SEQ ID NO: 9 was associated with the cells in the presence of DOTMA than in its absence. 60% of the oligonucleotide localized to the nuclei after 4 hours treatment in the presence of DOTMA, approximately 50% remained in the cells 20 hours post-treatment. The stability of phosphorothioate oligonucleotides was much greater than the phosphodiester oligonucleotides. Only 40% degradation of the phosphorothioate oligonucleotide was found after 24 hours in 10% serum-containing medium. More than 50% of the phosphodiester oligonucleotide was degraded within 1 hour. DOTMA enhanced the activity of antisense oligonucleotide phosphorothioate.

[4] = assay type: in vitro ADME; settings: after 24 hours in 10% serum-containing medium
Experimental: as §1

human LOX ascites tumor = experiment: Tumor growth inhibition, i.p. LOX ascites tumor in nude mice; assay type: in vivo; settings: complexed with DOTMA
Experimental: Intraperitoneally (i.p.) transplanted, exponentially growing LOX ascites tumor cells were harvested from nude mice, washed and resuspended in serum-free RPMI medium. A total of 2×10^6 viable cells (determined by trypan blue exclusion) in 0.5 ml RPMI medium were injected i.p. into the homozygous mutant, HSd: Athymic Nude-nu male mice (Sambrook, et al., 1989). Treatment was started 1 day after the i.p. injection of tumor cells and the oligonucleotide in the presence of DOTMA was given i.p. on days 1, 3 and 5. Tumor growth was followed by daily inspection of the animals. The experiments were terminated when the ascite tumors were visible both in controls and treated animals, generally by day 14. All animal experimentation followed the guidelines of the Baylor College of Medicine and New York Academy of Sciences.
The tumor growth inhibitory effect of antisense oligonucleotide SEQ ID NO: 9 was studied on i.p. injected LOX tumor cells. […] No tumor growth inhibition or other toxic effects occurred after treatment with PBS alone or DOTMA in PBS (1-10 mg/kg bodyweight).

[5] = test system: HRCC-SN12A1 cells (human renal cell carcinoma); experiment: Cell growth of HRCC-SN12A1 cells by counting attached cells after oligonucleotide treatment; assay type: cell-based
Experimental: HeLa S3 (ATCC CCL 2.2, human epithelioid cervix carcinoma) cells were subcultured in Dulbecco's modified Eagle Medium (D-MEM) (GIBCO BRL), supplemented with 10% fetal bovine serum (FBS) (GIBCO BRL) and 1% penicillin-streptomycin liquid (100 000 IU/ml penicillin G sodium, 10 mg/ml streptomycin sulfate in 0.85% saline) (GIBCO BRL). LOX (IMVI, human amelanotic melanoma) cells (provided by Dr. D. J. Dykes, Southern Research Institute, Birmingham, Ala.) were subcultured in RPMI 1640 medium (RPMI) (GIBCO BRL) supplemented with 10% FBS and 1% penicillin-streptomycin liquid. […] All cells were negative for mycoplasma infection as determined by a DNA stain (McGarrity, Methods in Enzymology: Cell Culture, Vol 63, p23 (Academic Press, San Diego; 1979); Freshney, Culture of Animal Cells: A Manual of Basic Techniques (Wiley-Liss, NY; 1987). […]
The effect of oligonucleotides on cell growth was determined by counting the attached cells in the 6-well plates through a phase contrast inverted microscope (Nikon Diaphot, 10×objective, 10×ocular, 4×magnification extender, total magnification: 400×). The attached cells on 10 randomly chosen fields were counted (10-200 cells/field) and the total cell number was calculated by multiplying the mean cell number by the correction factor (f6-well =6028, f24-well =1258, f10 cm dish =35,670). […]

[6] = test system: LOX cells (human amelanotic melanoma); experiment: Cell growth of LOX cells by counting attached cells after oligonucleotide treatment; assay type: cell-based
Experimental: HeLa S3 (ATCC CCL 2.2, human epithelioid cervix carcinoma) cells were subcultured in Dulbecco's modified Eagle Medium (D-MEM) (GIBCO BRL), supplemented with 10% fetal bovine serum (FBS) (GIBCO BRL) and 1% penicillin-streptomycin liquid (100 000 IU/ml penicillin G sodium, 10 mg/ml streptomycin sulfate in 0.85% saline) (GIBCO BRL). LOX (IMVI, human amelanotic melanoma) cells (provided by Dr. D. J. Dykes, Southern Research Institute, Birmingham, Ala.) were subcultured in RPMI 1640 medium (RPMI) (GIBCO BRL) supplemented with 10% FBS and 1% penicillin-streptomycin liquid. HRCC-SN12A1 (human renal cell carcinoma) cells (established from the ascitic cells of intrarenally transplanted HRCC-bearing nude mouse and provided by Dr. I. J. Fidler, M.D., Anderson Cancer Center, Houston, Tex.)(Naito, etal., 1986) were subcultured in Eagle minimum essential medium (MEM) (GIBCO BRL), supplemented with 10% FBS, vitamins, L-glutamine, sodium pyruvate, non-essential amino acids and 1% penicillin-streptomycin liquid. All cells were negative for mycoplasma infection as determined by a DNA stain (McGarrity, Methods in Enzymology: Cell Culture, Vol 63, p23 (Academic Press, San Diego; 1979); Freshney, Culture of Animal Cells: A Manual of Basic Techniques (Wiley-Liss, NY; 1987).
Twenty-four hours after plating (1×10^5 cells into 6-well cell culture dishes), the cells growing in monolayer were gently washed once with 5 ml serum-free D-MEM, RPMI and MEM medium for HeLa S3, LOX and HRCC-SN12A1 cells, respectively. Freshly prepared serum-free mediumcontaining 10 μg/ml cationic lipid (DOTMA); Chiang, et al., J. Biol. Chem., 266:18162 (1991); Bennett, et al., J. Liposome Research, in press (1992); were mixed with oligonucleotide and preincubated at 37° C. in a humidified incubator for 15 minutes to allow formation of an oligonucleotide-cationic lipid complex. The oligonucleotide concentrations were between 0.001 and 10 μM, but for the majority of the experiments for HeLa S3 cells 0.1 μM, for LOX cells 0.03-0.05-0.1 μM, and for HRCC cells 0.1 μM concentrations were used. […]
The effect of oligonucleotides on cell growth was determined by counting the attached cells in the 6-well plates through a phase contrast inverted microscope (Nikon Diaphot, 10×objective, 10×ocular, 4×magnification extender, total magnification: 400×). The attached cells on 10 randomly chosen fields were counted (10-200 cells/field) and the total cell number was calculated by multiplying the mean cell number by the correction factor (f6-well =6028, f24-well =1258, f10 cm dish =35,670). […] The dead floating cells (viability was determined by […]) were not counted. The cell number in each well was determined before treatment, immediately after treatment, and daily after treatment for 5-7 days. […]

[7] = test system: HeLa and LOX human tumor cell lines; experiment: Nuclear aberrations, mitoses and cell growth in HeLa and LOX cells by light and fluorescence microscopy; assay type: cell-based; settings: 0.2 or 0.4 μM + DOTMA 4 h
Experimental: HeLa and LOX human tumor cell lines were analyzed by light and fluorescence microscopy after 4 hours treatment with 0.2 or 0.4 μM antisense (SEQ ID NO: 9) or sense (SEQ ID NO: 16) oligonucleotide with DOTMA. […] Nucleolar unraveling and fragmentation and chromatin alterations were observed. In some LOX cells chromatin was condensed as in prophase arrest. In HeLa cells, chromatin was condensed and compacted. Decreased mitoses correlated with decreased ^3 H-thymidine incorporation. Cell growth decreased 70-80%.

[8] = 32P-labeled phosphorothioate oligonucleotide
[9] = two days after treatment, DOTMA 4 h serum-free

TCCCAGTCCC ACCTCCCATC (antisense TCCCAGTCCCACCTCCCATC; chemistry not given here) [SEQ ID NO: 6, p120 antisense oligonucleotide, 3' UTR]
cell growth inhibitory effect [1]: 70.7±24.8%

GTGGGAGGCC AAGGCGGGTG (sense GTGGGAGGCCAAGGCGGGTG; chemistry not given here) [SEQ ID NO: 16, reference compound]
inhibition of cell growth (in words) ([1]; HeLa cells): No inhibitory effect

CACGCCTCCC GACTCTGCCC (DNA CACGCCTCCCGACTCTGCCC; chemistry not given here) [SEQ ID NO: 15, reference compound]
log HeLa cell kill ([1]; HeLa cells): 0.2 log

CACCCGCCTT GGCCTCCCAG (antisense CACCCGCCTTGGCCTCCCAG; chemistry not given here) [SEQ ID NO: 14, p120 antisense oligonucleotide, 3' UTR]
inhibition of the tumors (in words) [2]: marked inhibition
inhibition of cell growth (in words) ([1]; HeLa cells): inhibitory activity

CACCCGCCTT GGCCTCCCAC (antisense CACCCGCCTTGGCCTCCCAC; chemistry not given here) [SEQ ID NO: 9, p120 antisense oligonucleotide, 3' UTR]
oligonucleotide associated with the cells, presence versus absence of DOTMA [3, 8]: 5-15 fold
time of treatment to plateau of cellular uptake [3, 8]: 1 h
oligonucleotide remaining in the cells ([3]; 20 hours post-treatment): approximately 50%
oligonucleotide localized to the nuclei ([3]; after 4 hours treatment in the presence of DOTMA): 60%
degradation [4]: 40%
inhibition of the tumors (in words) [2]: marked inhibition
log-cell kill ([2]; especially 3-4 days after treatment): 0.5 to 1.5 log
inhibition of cell growth in vivo (human LOX ascites tumor; 0.65 mg/kg bodyweight i.p. days 1, 3, 5): 80%
inhibition of cell growth in vivo (human LOX ascites tumor; 6.5 mg/kg bodyweight i.p. days 1, 3, 5): 90%
IC50, tumor growth inhibition in vivo (human LOX ascites tumor; i.p. days 1, 3, 5): 0.26 mg/kg bodyweight
maximum cytocidal effect (log cell kill) ([5]; 4 days after treatment): 1.3 log
log cell kill [5, 9]: 0.7 log
cell growth inhibitory effect [1]: 87.6±11.3%
effect of repeated treatment ([1]; HeLa cells, 0.1 μM + DOTMA, two 4 h treatments on days 1 and 3): additive effects
log HeLa cell kill ([1]; HeLa cells): 0.7 log
inhibition of cell growth in complete medium ([1]; HeLa cells, DOTMA-mediated treatment in complete (10% FBS) medium, compared to serum-free (FIG. 1C)): very slight
inhibition of cell growth (in words) ([1]; HeLa cells): most consistent and greatest inhibition of cell growth; also recorded: inhibitory activity
IC50 ([1]; HeLa cells, oligonucleotide + DOTMA 4 h serum-free, two days after treatment (FIG. 4), read-out: IC50, inhibition of cell growth): 20 nM
log cell kill, single treatment ([6]; 0.05 μM + DOTMA, one 4 h treatment day 1 after seeding): 1.4 log
effect of repeated treatment ([6]; 0.05 μM + DOTMA, two 4 h treatments on days 1 and 3): killed most LOX cells and no recovery was found on day 8
IC50 ([6]; oligonucleotide + DOTMA 4 h serum-free, two days after treatment (FIG. 4), read-out: IC50, inhibition of cell growth): 10 nM
log cell kill [6, 9]: 1.2 log
decrease of cell growth [7]: 70-80%
decrease of mitotic cells ([7]; at 8 to 72 hours post-treatment): 70%
decrease of mitotic cells ([7]; at 4 hours): 50%
